# Measurements taken from patent US20040132121A1, “Method of identifying antibacterial compounds” (priority 2000, published 2004).
# Where two headings read alike, the source gives them in different places. Where a SMILES comes first, the peptide text is derived from it. Where no end group is shown, it is not given here.
# Key:
# [1] = target: binding of E. coli δ to E. coli β (Escherichia coli, UniProt P0A988); test: biochemical; conditions: for inhibition of the binding of δ to β: plate binding assay as in Example 6
# [2] = target: T1, binding of E. coli α to E. coli β (Escherichia coli, UniProt P0A988); test: biochemical; conditions: for inhibition of the binding of α to β: plate inhibition assay as in Example 6, buffer BB14
# T1 construct: made in house
# Description: Recombinantly expressed wild type E. coli α subunit was purified and coated onto 96 well microtitre plates (Falcon flexible plates, Becton Dickinson) at 20 μg/ml in 100 mM Na2CO3, pH9.5 (50 μl/well, 4° C. overnight or 2 h, RT (RT). The plates were washed in WB3 (20 mM Tris (pH 7.5), 0.1 mM EDTA containing 0.05% v/v Tween 20). This buffer was used in all wash steps through out the assay. The plates were then blocked with “blotto” (5% skim milk powder in WB3, 100 μl/well, RT) until required. Immediately before use the plates were washed.
# The purified synthetic peptides and β subunit were diluted in BB14 (20 mM Tris, pH 7.5, 10 mM MgCl2, 0.1 mM EDTA). Purified synthetic peptides with concentrations of 9.3-300 and 1000 μg/ml were allowed to complex with purified wild type β subunit (5 μg/ml) in a 96 well microtitre plate (Sarsted, Adelaide, Australia) pre-treated with “blotto” (30 min, RT). The reaction volume was 120 μl. The β subunit also was incubated in the absence of peptide or in the presence of the α subunit at 76.5 (μg/ml in BB14. All samples were incubated for 1 h (RT). Two 50 μl samples were transferred from each well to a corresponding well of the washed and “blocked” α subunit coated plates, and further incubated for 30 min (RT).
# The plates were washed and treated with rabbit serum raised to the β subunit. The anti-serum was diluted 1:1000 in WB3 containing 10% “blotto”, dispensed at 50 μl/well and incubated for 12 min (RT). The plates were washed again and treated with sheep anti-rabbit Ig-HRP conjugate (Silenus, Melbourne, Australia) diluted 1:1000 in WB3 containing 10% “blotto” (50 μl/well). The plate was incubated for 12 min (RT). After a final washing step, 1 mM 2,2′-azino-bis (3-ethylbenzthiazoline-6-sulfonic acid) was added (110 μl/well). Colour development was assessed at 405 nm using a plate reader (Multiskan Ascent, Labsystems, Sweden).
# For the CMS compounds in the of α:β assays, buffer BB37 replaced buffer BB14. Buffer BB37 contains 10 mM MnCl2 instead of the 10 mM MgCl2 used in BB14. The buffer conditions were changed to improve the reproducibility and sensitivity of the α:β binding assay.
# Compounds from the CMS library were dissolved in DMSO at 1 mg/ml in a 96 well tray format. A corresponding slave plate was prepared by adding 115 μl of BB37. Dissolved compounds (5 μl) from the master plate was added to the corresponding well in slave plates giving a final concentration of 41.7 μg/ml.
# Compounds were assayed for inhibition of the binding of E. coli α to E. coli β as described in Example 13.
# Peptides were assayed for inhibition of the binding of E. coli α to E. coli β as described in Example 6 with the exception that buffer BB37 replaced buffer BB14 in the alpha:beta binding assay. As noted above, BB37 contains 10 mM MnCl2 instead of 10 mM MgCl2 used in BB14. Again, the change in buffer conditions was made to improve the reproducibility and sensitivity of the α:β binding assay.
# [3] = target: T2, β subunit (Escherichia coli, UniProt P0A988); test: Surface plasmon resonance solution affinity analysis (IC50 of free peptide); assay type: binding, E. coli
# Description: (§1) Reverse phase HPLC purified peptides (10 μg) were reacted with 1 mg biotin-linker (6-(6-((biotinoyl)amino(hexanoyl) amino) hexanoic acid) sulphosuccinimidyl ester; Molecular Probes, Eugene, Oreg.) (20 mg/ml in DMSO) in 75 mM sodium borate (pH8.5) overnight (RT) with rotation. […] Biotinylated peptides that eluted later than the biotin-linker and free peptide, were collected, vacuum dried and then dissolved in water. SPR was conducted on a Biacore 2000 using streptavidin derivitised flow cell surfaces (Biacore). All β subunit and free peptide solutions were prepared in BB14 with 150 mM NaCl.
# For the solution affinity analyses, higher loadings of the biotinylated peptides on the flow cell surfaces, and therefore high RU (700-1000), were established. Loading with peptide 4 generated a negative control surface. […] In all data manipulations, the RU values of this surface was subtracted from the RU values of the test surface. A calibration curve of RU values generated at different concentrations of the β subunit over 10-100 nM was developed for each biotinylated peptide attached to the flow cell surface. To determine the inhibitory effect of free peptide, 100 nM β subunit was pre-incubated for 5 min with different concentrations of free peptide (10 nM to 4.5 μM, in duplicate) to form a complex of β subunit and peptide and then passed over the flow cell surfaces. The amount of free uncomplexed βremaining was determined from the calibration curve. The log of the concentration of the uncomplexed (free) β subunit was plotted against the log concentration of inhibitory peptide.
# [4] = target: T2, β subunit; test: biochemical; assay type: binding, E. coli; conditions: SPR, 1:1 Langmuir model
# Description: as §1
# The data was fitted to the 1:1 Langmuir model by the BioEvaluation software (Biacore).
# [5] = system: B. subtilis IH 6140; test: Inhibition of growth of B. subtilis by peptides (OD620 growth curve); assay type: cell-based, Bacillus subtilis
# Description: B. subtilis IH 6140 was subcultured from a fresh plate into a 10 ml tube containing 5 ml of Oxoid Mueller-Hinton broth (Oxoid code CM405 Oxoid Manual 7th edition 1995 pg 2-161). This culture was shaken at 120 rpm at 37° C. for 21 h and then diluted in normal saline to 0.5 McFarland Standard (NCCLS Performance standard for Dilution Antimicrobial Susceptibility Testing M7-A4 January 1997). This suspension was further diluted 1:5 in normal saline to form the bacterial starter culture. Peptides were tested at a final concentration of 1 mg/ml in a flat bottom 96 well plate (Nunclon surface, sterile Nalge Nunc International). Wells were prepared by using 100 μl of double strength Mueller-Hinton Broth, an appropriate volume of peptide and the final volume made up to 190 μl. The wells were then inoculated with 10 μl of the starter culture.
# The plate was sealed with a clear adhesive plate seal (Abgene House). It was then placed in a Labsystems Multiskan Ascent spectrophotometer. The plate was incubated at 37° C. with shaking at 120 rpm every alternate 10 seconds. The absorbence at 620 nm was measured every 30 min for 16 h.
# [6] = Table 24, buffer BB37 (10 mM MnCl2), read-out: IC50 α:β
# [7] = IC50 δ (inhibition of binding of δ to β), Table 17, δ-coated plate, β 1 μg/ml
# [8] = Table 17, α-coated plate, β 5 μg/ml, buffer BB14, read-out: IC50 α (inhibition of binding of α to β) (converted)
# [9] = Table 20, assayed as in Example 6, read-out: IC50 α:β
# [10] = IC50 b-peptide 1, free peptide with 100 nM β, biotinylated peptide 1 on flow cell surface
# [11] = IC50 b-peptide 14, free peptide with 100 nM β, biotinylated peptide 14 on flow cell surface
# [12] = Table 21, NCI compounds, buffer BB14, read-out: IC50 α-binding
# [13] = B. subtilis IH 6140, peptide 1 mg/ml, OD620 over 16 h
# [14] = free peptide with 100 nM β, biotinylated peptide 1 on flow cell surface, read-out: IC50 b-peptide 1
# [15] = free peptide with 100 nM β, biotinylated peptide 14 on flow cell surface, read-out: IC50 b-peptide 14
# [16] = biotinylated peptide on surface, read-out: KD
# [17] = biotinylated peptide on flow cell surface, read-out: KD
# T1 sequence (P0A988 whole entry): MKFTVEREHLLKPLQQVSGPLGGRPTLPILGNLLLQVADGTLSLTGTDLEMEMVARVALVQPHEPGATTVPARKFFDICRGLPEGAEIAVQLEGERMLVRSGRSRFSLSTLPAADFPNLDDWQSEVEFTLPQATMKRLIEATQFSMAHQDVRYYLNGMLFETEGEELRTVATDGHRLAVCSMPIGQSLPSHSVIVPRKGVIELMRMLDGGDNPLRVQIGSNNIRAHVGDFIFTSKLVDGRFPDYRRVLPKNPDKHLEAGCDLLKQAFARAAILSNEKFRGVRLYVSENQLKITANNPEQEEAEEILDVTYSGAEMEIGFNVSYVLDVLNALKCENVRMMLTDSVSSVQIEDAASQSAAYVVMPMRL
# Sequence of binding of E. coli δ to E. coli β (P0A988 whole entry): as above
# T2 sequence (P0A988 whole entry): as above
compound,measurement,setting,value
IGQASMFGV [pep2],IC50 δ (inhibition of binding of δ to β),"[1]; Table 17, δ-coated plate, β 1 μg/ml",ni^a
same,IC50,[2],946 µM
IGQAMSLFGV [Peptide 110a],IC50,"[1]; IC50 δ:β, Table 24",> 100 µM
same,IC50,[2]; [6],27 µM
CC(C)C[C@H](NC(=O)[C@@H](N)CC(=O)O)C(=O)N[C@@H](Cc1ccccc1)C(=O)O [pep16] (H-Asp-Leu-Phe-OH; N-terminus and C-terminus assumed),IC50,[1]; [7],3050 µM
same,IC50,[2]; [8],343 µM
same,IC50,[2]; [9],135 µM
IGQMSLLGV [Peptide 110e],IC50,"[1]; IC50 δ:β, Table 24",7 µM
same,IC50,[2]; [6],9.7 µM
IGQLDLFGV [pep14],IC50,[1]; [7],9.16 µM
same,IC50,[2]; [8],1.38 µM
IGQLDMFGV [Peptide 1],inhibition of the binding of δ to β,[1],inhibited
same,IC50,[3]; [10],920 nM
same,IC50,[3]; [11],1010 nM
same,inhibition of the binding of α to β,[2],significant inhibition
same,Kd,"[4]; KD, biotinylated peptide on surface",500 nM
same,Kd,"[4]; KD, biotinylated peptide on flow cell surface",558 nM
CC(=O)N[C@@H](CC(=O)O)C(=O)N[C@@H](CC(C)C)C(=O)N[C@@H](Cc1ccccc1)C(N)=O [pep18] (Ac-Asp-Leu-Phe-NH2),IC50,[2]; [9],135 µM
IGQLVLGLGV [Peptide 110b],IC50,"[1]; IC50 δ:β, Table 24",6.8 µM
same,IC50,[2]; [6],9.3 µM
NC(CCC(=O)NC(CSCC(=O)c1ccc(Br)cc1)C(=O)NCC(=O)O)C(=O)O (centres unmarked) [Peptide 131123],IC50,"[1]; IC50 δ-binding, Table 21",> 1000 µM
same,IC50,[2]; [12],210 µM
same,inhibition of the binding of α to β,[2],significantly inhibited
IGQLDMFGV [pep1],IC50,[1],13.2 µM
same,IC50,[2],2.86 µM
EAQLDLFDS [Peptide 112d],IC50,[1],3.6 µM
same,IC50,[2],1 µM
IGQADMAGV [Peptide 4],IC50,[3]; [10],> 10000 nM
same,IC50,[3]; [11],> 10000 nM
CC(C)C[C@H](NC(=O)[C@@H](N)CC(=O)O)C(=O)N[C@@H](Cc1ccccc1)C(=O)O [DLF] (H-Asp-Leu-Phe-OH; N-terminus and C-terminus assumed),IC50,"[1]; δ:β binding, 50% inhibition, plate binding assay",~3050 µM
same,Doubling time log phase,[5]; [13],187 Min
same,Increase in lag phase,[5]; [13],120 min
same,effect on growth rate during log phase of B. subtilis,[5]; peptide 1 mg/ml,decreasing the growth rate
same,effect on lag phase of B. subtilis growth,[5]; peptide 1 mg/ml,increasing the lag phase
same,inhibition of growth of B. subtilis,"[5]; peptide 1 mg/ml, OD620 over 16 h",significantly inhibits
same,IC50,"[2]; α:β binding, 50% inhibition, plate inhibition assay",~343 µM
IGQLSLFGV [Peptide 13],IC50,[1]; [7],10.2 µM
same,IC50,"[1]; IC50 δ:β, Table 24",5.9 µM
same,inhibition of the binding of δ to β,[1],inhibited
same,IC50,[3]; [14],440 nM
same,IC50,[3]; [15],550 nM
same,IC50,[2]; [8],1.52 µM
same,IC50,[2]; [6],4.9 µM
same,inhibition of the binding of α to β,[2],significant inhibition
same,Kd,[4]; [16],778 nM
same,Kd,[4]; [17],800 nM
CC(C)(C)OC(=O)NCC(=O)NC(CSC(c1ccccc1)c1ccccc1)C(=O)NCC(=O)O (centres unmarked) [Peptide 338500],IC50,"[1]; IC50 δ-binding, Table 21",146 µM
same,inhibition of the binding of δ to β,[1],significantly inhibited
same,IC50,[2]; [12],> 1000 µM
COC(=O)CC(=O)NOCc1ccc(Cl)c(Cl)c1 [AOL-06454],inhibition of the binding of E. coli α to E. coli β (CMS library screen),[2],significantly inhibited
IGQLDLFGV [Peptide 14],inhibition of the binding of δ to β,[1],inhibited
same,IC50,[3]; [14],400 nM
same,IC50,[3]; [15],500 nM
same,inhibition of the binding of α to β,[2],significant inhibition
same,Kd,[4]; [16],800 nM
same,Kd,[4]; [17],778 nM
IGQLNLFGV [Peptide 110d],IC50,"[1]; IC50 δ:β, Table 24",11.5 µM
same,IC50,[2]; [6],7.8 µM
IGQLGLFGV [Peptide 110f],IC50,"[1]; IC50 δ:β, Table 24",9.5 µM
same,IC50,[2]; [6],17.5 µM
COC(=O)CC(=O)NOCc1ccc(Cl)c(Cl)c1 [AOC-06454],% Inhibition of binding of E. coli α to E. coli β,[2],"72.2, 75.3%"
CC[C@H](C)[C@H](N)C(=O)NCC(=O)N[C@@H](CCC(N)=O)C(=O)N[C@@H](C)C(=O)N[C@@H](CC(=O)O)C(=O)N[C@@H](CCSC)C(=O)N[C@@H](Cc1ccccc1)C(=O)NCC(=O)N[C@H](C(=O)O)C(C)C [DnaE],inhibition of the binding of δ to β,[1],inhibited
same,inhibition of the binding of α to β,[2],significant inhibition
IGQLSLPLGV [Peptide 110c],IC50,"[1]; IC50 δ:β, Table 24",3.3 µM
same,IC50,[2]; [6],3.4 µM
